Assay results: PubChem BioAssay (NCI)
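Grown in 96-well plates, cells were treated for 48 hours with each compound at five concentrations. Insufficient inhibition: endpoint recorded as highest concentration tested. TGI denotes the concentration required for complete inhibition of growth.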

Legend:
Assay in all cases: growth of human tumour cells (NCI), 48 h
OVCAR-5 ovarian = tested on: OVCAR-5 ovarian
SN12C renal = tested on: SN12C renal
SF-295 CNS = tested on: SF-295 CNS
COLO 205 colon = tested on: COLO 205 colon
HOP-92 NSCLC = tested on: HOP-92 NSCLC
NCI-H460 lung = tested on: NCI-H460 lung
HCT-15 colon = tested on: HCT-15 colon
CAKI-1 renal = tested on: CAKI-1 renal
SK-OV-3 ovarian = tested on: SK-OV-3 ovarian
HOP-62 NSCLC = tested on: HOP-62 NSCLC

## O=P1(N(CCCl)CCCl)Oc2ccc(Cl)cc2C(C(Cl)(Cl)Cl)c2cc(Cl)ccc2O1 (stereo not given)
OVCAR-5 ovarian
  TGI: > 100 µM
SN12C renal
  TGI: 57.6 µM
SF-295 CNS
  TGI: 23.7 µM
COLO 205 colon
  TGI: 26.5 µM
HOP-92 NSCLC
  TGI: 40.4 µM
NCI-H460 lung
  TGI: 29.8 µM
HCT-15 colon
  TGI: 23.5 µM
CAKI-1 renal
  TGI: > 100 µM
SK-OV-3 ovarian
  TGI: > 100 µM
HOP-62 NSCLC
  TGI: 27.9 µM

## CCCCCC[C@H]([C@H](C)O)n1cnc2c(N)ncnc21
OVCAR-5 ovarian
  TGI: > 100 µM
SN12C renal
  TGI: > 100 µM
SF-295 CNS
  TGI: > 100 µM
COLO 205 colon
  TGI: > 100 µM
HOP-92 NSCLC
  TGI: > 100 µM
NCI-H460 lung
  TGI: > 100 µM
HCT-15 colon
  TGI: > 100 µM
CAKI-1 renal
  TGI: > 100 µM
SK-OV-3 ovarian
  TGI: > 100 µM
HOP-62 NSCLC
  TGI: > 100 µM

## Nc1[nH]c(=O)nc2c1ncn2C1OC(CO)C(O)C1O (stereo not given)
OVCAR-5 ovarian
  TGI: > 100 µM
SN12C renal
  TGI: > 100 µM
SF-295 CNS
  TGI: > 100 µM
COLO 205 colon
  TGI: > 100 µM
HOP-92 NSCLC
  TGI: > 100 µM
NCI-H460 lung
  TGI: > 100 µM
HCT-15 colon
  TGI: 95.4 µM
CAKI-1 renal
  TGI: > 100 µM
SK-OV-3 ovarian
  TGI: > 100 µM
HOP-62 NSCLC
  TGI: > 100 µM

## C/C(=C1\N=C(c2ccccc2)OC1=O)c1ccccc1
OVCAR-5 ovarian
  TGI: > 100 µM
SF-295 CNS
  TGI: > 100 µM
COLO 205 colon
  TGI: > 100 µM
HOP-92 NSCLC
  TGI: > 100 µM
NCI-H460 lung
  TGI: > 100 µM
HCT-15 colon
  TGI: > 100 µM
CAKI-1 renal
  TGI: > 100 µM
SK-OV-3 ovarian
  TGI: > 100 µM
HOP-62 NSCLC
  TGI: > 100 µM

## C[C@]12CC[C@H]3[C@@H](CC=C4C[C@@H](N5CCCC5)CC[C@@]43C)[C@@H]1C[C@H](N1CCCCC1)[C@@H]2O
OVCAR-5 ovarian
  TGI: > 100 µM
SN12C renal
  TGI: > 100 µM
SF-295 CNS
  TGI: > 100 µM
COLO 205 colon
  TGI: > 100 µM
HOP-92 NSCLC
  TGI: > 100 µM
NCI-H460 lung
  TGI: > 100 µM
HCT-15 colon
  TGI: > 100 µM
CAKI-1 renal
  TGI: > 100 µM
SK-OV-3 ovarian
  TGI: > 100 µM
HOP-62 NSCLC
  TGI: > 100 µM

## C=C1c2nc3ccccc3n2C=C(c2ccc(C)cc2)N1c1ccc(OC)cc1
OVCAR-5 ovarian
  TGI: > 100 µM
SN12C renal
  TGI: > 100 µM
SF-295 CNS
  TGI: > 100 µM
COLO 205 colon
  TGI: > 100 µM
HOP-92 NSCLC
  TGI: > 100 µM
NCI-H460 lung
  TGI: > 100 µM
HCT-15 colon
  TGI: > 100 µM
CAKI-1 renal
  TGI: > 96.9 µM
SK-OV-3 ovarian
  TGI: > 100 µM
HOP-62 NSCLC
  TGI: > 100 µM

## C=C(Br)CN=CN(C)C
OVCAR-5 ovarian
  TGI: > 100 µM
SN12C renal
  TGI: > 100 µM
SF-295 CNS
  TGI: > 100 µM
COLO 205 colon
  TGI: > 100 µM
HOP-92 NSCLC
  TGI: > 100 µM
HCT-15 colon
  TGI: > 100 µM
CAKI-1 renal
  TGI: > 100 µM
SK-OV-3 ovarian
  TGI: > 100 µM
HOP-62 NSCLC
  TGI: > 100 µM

## COC1(CC[C@@H](C)COC2OC(CO)C(O)C(O)C2O)OC2C[C@H]3[C@@H]4CC[C@H]5C[C@@H](OC6OC(CO)C(OC7OC(CO)C(O)C(O)C7O)C(O)C6OC6OC(C)C(O)C(O)C6O)[C@H](O)C[C@]5(C)[C@H]4CC[C@]3(C)C2[C@@H]1C (stereo not given in full)
OVCAR-5 ovarian
  TGI: 4.57 µM
SN12C renal
  TGI: 3.42 µM
SF-295 CNS
  TGI: 3.28 µM
COLO 205 colon
  TGI: 6.69 µM
HOP-92 NSCLC
  TGI: 12.8 µM
NCI-H460 lung
  TGI: 9.43 µM
HCT-15 colon
  TGI: > 22.8 µM
CAKI-1 renal
  TGI: 4.29 µM
SK-OV-3 ovarian
  TGI: 3.28 µM
HOP-62 NSCLC
  TGI: 3.69 µM

## C/C(=N\Nc1nc2ccccc2s1)c1ccncn1
OVCAR-5 ovarian
  TGI: > 100 µM
SN12C renal
  TGI: 18 µM
SF-295 CNS
  TGI: 20.5 µM
COLO 205 colon
  TGI: 11.1 µM
HOP-92 NSCLC
  TGI: > 30.1 µM
NCI-H460 lung
  TGI: 14.9 µM
HCT-15 colon
  TGI: 15.9 µM
CAKI-1 renal
  TGI: 12.2 µM
SK-OV-3 ovarian
  TGI: > 32.1 µM
HOP-62 NSCLC
  TGI: > 36.3 µM

## Cn1c(=O)c2c(nc3[nH]c(=O)c(Br)cn32)n(C)c1=O
OVCAR-5 ovarian
  TGI: > 100 µM
SN12C renal
  TGI: > 100 µM
SF-295 CNS
  TGI: > 100 µM
COLO 205 colon
  TGI: > 100 µM
HOP-92 NSCLC
  TGI: > 100 µM
NCI-H460 lung
  TGI: > 100 µM
HCT-15 colon
  TGI: > 100 µM
CAKI-1 renal
  TGI: > 100 µM
SK-OV-3 ovarian
  TGI: > 100 µM
HOP-62 NSCLC
  TGI: > 100 µM

## COc1cc(CCNC2=CC(=O)c3nc[nH]c3C2=O)ccc1O
OVCAR-5 ovarian
  TGI: 35.8 µM
SN12C renal
  TGI: > 100 µM
SF-295 CNS
  TGI: 96.4 µM
COLO 205 colon
  TGI: 56.5 µM
HOP-92 NSCLC
  TGI: 73.3 µM
NCI-H460 lung
  TGI: > 100 µM
HCT-15 colon
  TGI: > 100 µM
CAKI-1 renal
  TGI: > 100 µM
SK-OV-3 ovarian
  TGI: 90.2 µM
HOP-62 NSCLC
  TGI: > 100 µM

## N#Cc1nc(CCc2nc(C#N)c(N)o2)oc1N
OVCAR-5 ovarian
  TGI: > 10 µM
SN12C renal
  TGI: > 10 µM
SF-295 CNS
  TGI: > 10 µM
COLO 205 colon
  TGI: > 10 µM
HOP-92 NSCLC
  TGI: > 10 µM
NCI-H460 lung
  TGI: > 10 µM
HCT-15 colon
  TGI: > 10 µM
CAKI-1 renal
  TGI: > 10 µM
SK-OV-3 ovarian
  TGI: > 10 µM
HOP-62 NSCLC
  TGI: > 10 µM

## CCN(CC)C(=S)SC(C(=O)Nc1nnc(-c2ccc(Cl)cc2)o1)c1ccccc1 (stereo not given)
OVCAR-5 ovarian
  TGI: 26.6 µM
SN12C renal
  TGI: 38.2 µM
SF-295 CNS
  TGI: 48.2 µM
COLO 205 colon
  TGI: 14.5 µM
HOP-92 NSCLC
  TGI: 51.5 µM
NCI-H460 lung
  TGI: 84.1 µM
HCT-15 colon
  TGI: 18.9 µM
CAKI-1 renal
  TGI: 51.8 µM
SK-OV-3 ovarian
  TGI: 31.4 µM
HOP-62 NSCLC
  TGI: 43.1 µM

## CC(C)(CO[C@H]1C[C@H]2CC[C@@]1(C)C2(C)C)[N+](=O)[O-]
OVCAR-5 ovarian
  TGI: 33.9 µM
SN12C renal
  TGI: > 100 µM
SF-295 CNS
  TGI: 33.9 µM
COLO 205 colon
  TGI: 31.4 µM
HOP-92 NSCLC
  TGI: 43.4 µM
NCI-H460 lung
  TGI: 38.5 µM
HCT-15 colon
  TGI: 51.6 µM
CAKI-1 renal
  TGI: 60.3 µM
SK-OV-3 ovarian
  TGI: > 100 µM
HOP-62 NSCLC
  TGI: 38.4 µM

## COC(=O)c1sc(=O)sc1SCc1cccc(CSc2sc(=O)sc2C(=O)OC)c1
OVCAR-5 ovarian
  TGI: > 100 µM
SN12C renal
  TGI: > 100 µM
SF-295 CNS
  TGI: > 100 µM
COLO 205 colon
  TGI: > 100 µM
HOP-92 NSCLC
  TGI: 95.6 µM
NCI-H460 lung
  TGI: > 100 µM
HCT-15 colon
  TGI: > 100 µM
CAKI-1 renal
  TGI: 93.5 µM
SK-OV-3 ovarian
  TGI: 51.4 µM
HOP-62 NSCLC
  TGI: 35.7 µM

## COc1cccc2c1C(=O)c1c(O)c3c(c(O)c1C2=O)C[C@@](O)(C(C)=O)CC3OC1CC(OC2CC(N)C(O)C(C)O2)C(O)C(C)O1 (stereo not given in full)
OVCAR-5 ovarian
  TGI: > 100 µM
SN12C renal
  TGI: > 100 µM
SF-295 CNS
  TGI: > 100 µM
COLO 205 colon
  TGI: > 100 µM
HOP-92 NSCLC
  TGI: > 100 µM
NCI-H460 lung
  TGI: > 100 µM
HCT-15 colon
  TGI: > 100 µM
CAKI-1 renal
  TGI: > 100 µM
SK-OV-3 ovarian
  TGI: > 100 µM
HOP-62 NSCLC
  TGI: > 100 µM

## Clc1ccc2c(c1)N(CCCN1CCCC13CCCCC3)c1ccccc1S2
OVCAR-5 ovarian
  TGI: 36.3 µM
SN12C renal
  TGI: 26.8 µM
SF-295 CNS
  TGI: 29.2 µM
COLO 205 colon
  TGI: > 54.9 µM
HOP-92 NSCLC
  TGI: 38.2 µM
NCI-H460 lung
  TGI: 21.4 µM
HCT-15 colon
  TGI: 42.5 µM
CAKI-1 renal
  TGI: > 76.8 µM
SK-OV-3 ovarian
  TGI: 57.7 µM
HOP-62 NSCLC
  TGI: 33.4 µM

## COP(=O)(OC)OCN(C)CC/C=C(\C)CC/C=C(\C)CCC=C(C)C
OVCAR-5 ovarian
  TGI: 39.1 µM
SN12C renal
  TGI: 32.1 µM
SF-295 CNS
  TGI: 32.5 µM
COLO 205 colon
  TGI: 34 µM
HOP-92 NSCLC
  TGI: 34.8 µM
NCI-H460 lung
  TGI: 23.9 µM
HCT-15 colon
  TGI: 30.3 µM
CAKI-1 renal
  TGI: 33.8 µM
SK-OV-3 ovarian
  TGI: > 100 µM
HOP-62 NSCLC
  TGI: 29.7 µM

## COc1cc2c[n+]3c4c(c2c(OC)c1OC)CCCC4CC3 (stereo not given)
OVCAR-5 ovarian
  TGI: > 100 µM
SF-295 CNS
  TGI: > 100 µM
COLO 205 colon
  TGI: > 100 µM
HOP-92 NSCLC
  TGI: > 100 µM
NCI-H460 lung
  TGI: > 100 µM
HCT-15 colon
  TGI: > 100 µM
CAKI-1 renal
  TGI: > 100 µM
SK-OV-3 ovarian
  TGI: > 100 µM
HOP-62 NSCLC
  TGI: > 100 µM

## O=C(Nc1ccccc1)N1CCN(C(=O)Nc2ccccc2)C1=S
SN12C renal
  TGI: > 100 µM
SF-295 CNS
  TGI: 58.4 µM
COLO 205 colon
  TGI: > 100 µM
HOP-92 NSCLC
  TGI: 63.5 µM
NCI-H460 lung
  TGI: > 100 µM
HCT-15 colon
  TGI: > 100 µM
CAKI-1 renal
  TGI: > 100 µM
SK-OV-3 ovarian
  TGI: 76.3 µM
HOP-62 NSCLC
  TGI: 67.9 µM

## CC1=C(C)C(=O)C(C2=CC(=O)c3ccccc3C2=O)=C(C2=CC(=O)c3ccccc3C2=O)C1=O
OVCAR-5 ovarian
  TGI: > 100 µM
SF-295 CNS
  TGI: > 55.2 µM
COLO 205 colon
  TGI: 9.77 µM
HOP-92 NSCLC
  TGI: > 83.3 µM
NCI-H460 lung
  TGI: 25.4 µM
HCT-15 colon
  TGI: > 100 µM
CAKI-1 renal
  TGI: 8.86 µM
SK-OV-3 ovarian
  TGI: 45.8 µM
HOP-62 NSCLC
  TGI: 33.4 µM
